Results taken from patent US12071404B2, “Aza (indole)-, benzothiophene-, and benzofuran-3-sulfonamides” (UCB Pharma GmbH, priority 2016, dated 2024).

These compounds were tested against GPR17 (Homo sapiens, UniProt Q13304) (assay: Calcium mobilization functional assay (GPR17 Ca2+ assay)). Details: CHO hGPR17 cells, inhibition of 50 nM MDL29,951, Calcium 5 dye, FLIPR; read-out: Ca2+ assay pIC50 (converted).
Type: cell-based
Parameters: host or cells: Flp-In T-REx CHO
Protocol: Flp-In T-REx CHO cells stably expressing human GPR17 receptor (CHO hGPR17) from Evi Kostenis' lab (Bonn University, Germany) were cultured at 37° C. in a humidified atmosphere of 5% CO2. Cells were grown in DMEM with Nutrient Mixture F-12 supplemented with hygromycin B (500 μg/mL) and blasticidin (30 μg/mL). Expression from the Flp-In locus was induced by treatment with doxycycline (1 μg/mL) for 16-20 h prior assays.
GPR17 is a G-protein coupled receptor. GPR17 activation triggers Gq-type G-protein signaling resulting in endoplasmic reticulum calcium (Ca^2+) stores release in cytosol which can be measured using Calcium 5 dye, a fluorescent indicator dye of cytosolic Ca^2+ levels. All Examples were tested in GPR17 Ca^2+ assay to determine (screen) their GPR17 modulating activity.
CHO hGPR17 were defrosted and seeded at a density of 20,000 cells per well into black 384-well plates with clear bottom. Cells were incubated overnight at 37° C. in a humidified atmosphere of 5% CO2. Sixteen to twenty hours after seeding, CHO hGPR17 were loaded for 60 min with Calcium 5 dye, a cytosolic Ca^2+ indicator fluorescent dye, according to manufacturer's instructions. Fluorescent signal relative to cytosolic Ca^2+ concentration was recorded over time at room temperature in FLIPR Tetra reader. […] Then, 50 nM MDL29,951, a GPR17 agonist, was added to the cells. Inhibitory effects of varying concentrations test compounds were measured and resulting plC50s were determined. […] Analysis and curve fitting were performed in ActivityBase XE using XLfit 4-parameter logistic equation y=A+((B−A)/(1+((C/x)^D))) where A, B, C and D stand for minimum y, maximum y, IC50 and slope, respectively.
The activities of the Example compounds tested are depicted in the table in Section B2B below. The activity ranges A, B and C refer to plC50 values in the Ca^2+ assay as follows: “A”: plC50<7.5, “B”: plC50 7.5<x≤ 8.5, “C”: plC50>8.5

Sequence of GPR17 (Q13304 whole entry): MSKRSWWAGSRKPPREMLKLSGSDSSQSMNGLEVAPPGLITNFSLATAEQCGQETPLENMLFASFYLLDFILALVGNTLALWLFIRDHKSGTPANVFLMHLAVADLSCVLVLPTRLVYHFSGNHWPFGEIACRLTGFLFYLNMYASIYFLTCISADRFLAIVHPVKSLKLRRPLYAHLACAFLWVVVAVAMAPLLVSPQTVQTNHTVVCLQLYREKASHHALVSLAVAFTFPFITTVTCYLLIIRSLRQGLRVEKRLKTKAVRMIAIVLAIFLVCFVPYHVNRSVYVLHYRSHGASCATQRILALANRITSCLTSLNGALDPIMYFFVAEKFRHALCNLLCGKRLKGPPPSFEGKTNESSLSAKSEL

Row | Compound | IC50 [nM]
1 | O=S(=O)(Nc1cc(F)c(F)cc1F)c1c[nH]c2cc(F)ccc12 [Compound I-41, 6-fluoro-N-(2,4,5-trifluorophenyl)-1H-indole-3-sulfonamide] | > 31.6
2 | N#Cc1ccc(NS(=O)(=O)c2c[nH]c3ccc(Br)cc23)cc1 [Compound I-13, 5-bromo-N-(4-cyanophenyl)-1H-indole-3-sulfonamide] | > 31.6
3 | O=S(=O)(Nc1cc(F)c(F)cc1F)c1c[nH]c2cc3c(cc12)OCO3 [Compound I-46, N-(2,4,5-trifluorophenyl)-5H-[1,3]dioxolo[4,5-f]indole-7-sulfonamide] | > 31.6
4 | O=S(=O)(Nc1cc(Cl)cc(Cl)n1)c1c[nH]c2cc(Cl)ccc12 [Compound I-40, 6-chloro-N-(4,6-dichloropyridin-2-yl)-1H-indole-3-sulfonamide] | > 31.6
5 | N#Cc1cc(F)c(NS(=O)(=O)c2c[nH]c3c(Cl)cccc23)cc1F [Compound I-117, 7-chloro-N-(4-cyano-2,5-difluorophenyl)-1H-indole-3-sulfonamide] | > 31.6
6 | O=S1(=O)CCc2ccc(NS(=O)(=O)c3c[nH]c4cc(Cl)ccc34)cc21 [Compound I-10, 6-chloro-N-(1,1-dioxido-2,3-dihydro-1-benzothiophen-6-yl)-1H-indole-3-sulfonamide] | > 31.6
7 | Cc1ccc2c(S(=O)(=O)Nc3cc(F)ccc3F)c[nH]c2c1 [Compound I-32, N-(2,5-difluorophenyl)-6-methyl-1H-indole-3-sulfonamide] | > 31.6
8 | O=S(=O)(Nc1cc(F)ccc1F)c1c[nH]c2cc(F)ccc12 [Compound I-37, N-(2,5-difluorophenyl)-6-fluoro-1H-indole-3-sulfonamide] | > 31.6
9 | Cc1cc2c(S(=O)(=O)Nc3cccc4c3OCO4)c[nH]c2cc1Br [Compound I-35, N-(1,3-benzodioxol-4-yl)-6-bromo-5-methyl-1H-indole-3-sulfonamide] | > 31.6
10 | O=S(=O)(Nc1cccc2nsnc12)c1c[nH]c2ccccc12 [Compound I-106, N-(2,1,3-benzothiadiazol-4-yl)-1H-indole-3-sulfonamide] | > 31.6
11 | N#Cc1ccc(NS(=O)(=O)c2c[nH]c3ccc(Cl)cc23)cc1 [Compound I-17, 5-chloro-N-(4-cyanophenyl)-1H-indole-3-sulfonamide] | > 31.6
12 | N#Cc1ccc(NS(=O)(=O)c2c[nH]c3c4c(ccc23)CCC4)cc1F [Compound I-149, N-(4-cyano-3-fluorophenyl)-1,6,7,8-tetrahydrocyclopenta[g]indole-3-sulfonamide] | 3.16 to 31.6
13 | N#Cc1ccc(NS(=O)(=O)c2c[nH]c3ccc(I)cc23)cc1 [Compound I-15, N-(4-cyanophenyl)-5-iodo-1H-indole-3-sulfonamide] | > 31.6
14 | O=S(=O)(Nc1ccc(Cl)cc1F)c1c[nH]c2c1ccc1ccccc12 [Compound I-45, N-(4-chloro-2-fluorophenyl)-1H-benzo[g]indole-3-sulfonamide] | > 31.6
15 | O=S(=O)(Nc1ccc(F)cn1)c1c[nH]c2cc(Cl)ccc12 [Compound I-62, 6-chloro-N-(5-fluoropyriidn-2-yl)-1H-indole-3-sulfonamide] | > 31.6
16 | N#Cc1ccc(NS(=O)(=O)c2c[nH]c3cc(Cl)ccc23)nc1 [Compound I-61, 6-chloro-N-(5-cyanopyridin-2-yl)-1H-indole-3-sulfonamide] | > 31.6
17 | COc1cccc2c(S(=O)(=O)Nc3ccc(C#N)cc3F)c[nH]c12 [Compound I-115, N-(4-cyano-2-fluorophenyl)-7-methoxy-1H-indole-3-sulfonamide] | > 31.6
18 | O=S(=O)(Nc1cc(F)c(F)cc1F)c1c[nH]c2cc(C(F)(F)F)ccc12 [Compound I-54, 6-(trifluoromethyl)-N-(2,4,5-trifluorophenyl)-1H-indole-3-sulfonamide] | > 31.6
19 | O=S(=O)(Nc1cccc(F)c1Cl)c1c[nH]c2cc(Cl)ccc12 [Compound I-23, 6-chloro-N-(2-chloro-3-fluorophenyl)-1H-indole-3-sulfonamide] | > 31.6
20 | Cc1ccc(NS(=O)(=O)c2c[nH]c3cc(Cl)ccc23)cc1F [Compound I-7, 6-chloro-N-(3-fluoro-4-methylphenyl)-1H-indole-3-sulfonamide] | > 31.6

Row | Compound | IC50 [nM]
21 | O=S(=O)(Nc1ccc2nsnc2c1)c1c[nH]c2c1ccc1ccccc12 [Compound I-157, N-(2,1,3-benzothiadiazol-5-yl)-1H-benzo[g]indole-3-sulfonamide] | 3.16 to 31.6
22 | N#Cc1ccc(NS(=O)(=O)c2c[nH]c3ncc(Cl)cc23)cc1 [Compound I-77, 5-chloro-N-(4-cyanophenyl)-1H-pyrrolo[2,3-b]pyridine-3-sulfonamide] | > 31.6
23 | COc1ccc2c(S(=O)(=O)Nc3cc4c(cc3F)OC(F)(F)O4)c[nH]c2c1 [Compound I-71, 6-methoxy-N-(2,2,6-trifluoro-1,3-benzodioxol-5-yl)-1H-indole-3-sulfonamide] | > 31.6
24 | O=S(=O)(Nc1ccc2nsnc2c1)c1c[nH]c2cc(C(F)(F)F)ccc12 [Compound I-192, N-(2,1,3-benzothiadiazol-5-yl)-6-(trifluoromethyl)-1H-indole-3-sulfonamide] | < 3.16
25 | N#Cc1ccc(NS(=O)(=O)c2c[nH]c3cc(F)cc(F)c23)c(F)c1 [Compound I-168, N-(4-cyano-2-fluorophenyl)-4,6-difluoro-1H-indole-3-sulfonamide] | 3.16 to 31.6
26 | COCCOc1ccc2c(S(=O)(=O)Nc3cc(F)c(C#N)cc3F)c[nH]c2c1 [Compound I-146, N-(4-cyano-2,5-difluorophenyl)-6-(2-methoxyethoxy)-1H-indole-3-sulfonamide] | > 31.6
27 | O=S(=O)(Nc1ccc(Br)cc1)c1c[nH]c2cc(Cl)ccc12 [Compound I-218, N-(4-bromophenyl)-6-chloro-1H-indole-3-sulfonamide] | > 31.6
28 | COc1c(Cl)ccc2c(S(=O)(=O)Nc3cc(F)c(F)cc3F)c[nH]c12 [Compound I-196, 6-chloro-7-methoxy-N-(2,4,5-trifluorophenyl)-1H-indole-3-sulfonamide] | > 31.6
29 | CS(=O)(=O)c1ccc2c(S(=O)(=O)Nc3ccc4c(c3)OC(F)(F)O4)c[nH]c2c1 [Compound I-36, N-(2,2-difluoro-1,3-benzodioxol-5-yl)-6-(methylsulfonyl)-1H-indole-3-sulfonamide] | > 31.6
30 | CC(C#N)c1ccc(NS(=O)(=O)c2c[nH]c3cc(Cl)ccc23)c(F)c1 (stereo not shown) [Compound I-207, 6-chloro-N-[4-(1-cyanoethyl)-2-fluorophenyl]-1H-indole-3-sulfonamide] | > 31.6
31 | COc1ccc(-c2ccc3c(S(=O)(=O)Nc4ccc(C#N)cc4F)c[nH]c3c2)cc1 [Compound I-232, N-(4-cyano-2-fluorophenyl)-6-(4-methoxyphenyl)-1H-indole-3-sulfonamide] | > 31.6
32 | O=S(=O)(Nc1ccc2c(c1)OCO2)c1c[nH]c2cc(Cl)ccc12 [Compound I-5, N-(1,3-benzodioxol-5-yl)-6-chloro-1H-indole-3-sulfonamide] | > 31.6
33 | Cc1ccc2c(S(=O)(=O)Nc3cccc4c3OCO4)c[nH]c2c1 [Compound I-29, N-(1,3-benzodioxol-4-yl)-6-methyl-1H-indole-3-sulfonamide] | > 31.6
34 | O=S(=O)(Nc1ccccc1F)c1c[nH]c2cc(Cl)ccc12 [Compound I-11, 6-chloro-N-(2-fluorophenyl)-1H-indole-3-sulfonamide] | > 31.6
35 | O=S(=O)(Nc1ccc(I)cc1F)c1c[nH]c2c1ccc1ccccc12 [Compound I-47, N-(2-fluoro-4-iodophenyl)-1H-benzo[g]indole-3-sulfonamide] | > 31.6
36 | Cc1cc2c(S(=O)(=O)Nc3cc(F)ccc3F)c[nH]c2cc1Br [Compound I-27, 6-bromo-N-(2,5-difluorophenyl)-5-methyl-1H-indole-3-sulfonamide] | > 31.6
37 | COc1cccc(NS(=O)(=O)c2c[nH]c3cc(Cl)ccc23)n1 [Compound I-58, 6-chloro-N-(6-methoxypyridin-2-yl)-1H-indole-3-sulfonamide] | > 31.6
38 | O=S(=O)(Nc1ccc2ncsc2c1)c1c[nH]c2cc(Cl)ccc12 [Compound I-3, N-(1,3-benzothiazol-6-yl)-6-chloro-1H-indole-3-sulfonamide] | > 31.6
39 | O=S(=O)(Nc1cccc2nsnc12)c1c[nH]c2cc(OCc3ccccc3)ccc12 [Compound I-156, N-(2,1,3-benzothiadiazol-4-yl)-6-(benzyloxy)-1H-indole-3-sulfonamide] | > 31.6
40 | C#Cc1ccc(NS(=O)(=O)c2c[nH]c3cc(Cl)ccc23)cc1 [Compound I-22, 6-chloro-N-(4-ethynylphenyl)-1H-indole-3-sulfonamide] | > 31.6
